Results on four compounds are retold here after ChEMBL document CHEMBL4261615, “Design, synthesis, biological evaluation and cellular imaging of imidazo[4,5-b]pyridine derivatives as potent and selective TAM inhibitors” (Bioorg Med Chem, 2018).

Molecules are shown by their SMILES.

The target in assay [1] is T1, Tyrosine-protein kinase receptor TYRO3 (Homo sapiens) (UniProt Q06418).
T1 sequence (whole entry): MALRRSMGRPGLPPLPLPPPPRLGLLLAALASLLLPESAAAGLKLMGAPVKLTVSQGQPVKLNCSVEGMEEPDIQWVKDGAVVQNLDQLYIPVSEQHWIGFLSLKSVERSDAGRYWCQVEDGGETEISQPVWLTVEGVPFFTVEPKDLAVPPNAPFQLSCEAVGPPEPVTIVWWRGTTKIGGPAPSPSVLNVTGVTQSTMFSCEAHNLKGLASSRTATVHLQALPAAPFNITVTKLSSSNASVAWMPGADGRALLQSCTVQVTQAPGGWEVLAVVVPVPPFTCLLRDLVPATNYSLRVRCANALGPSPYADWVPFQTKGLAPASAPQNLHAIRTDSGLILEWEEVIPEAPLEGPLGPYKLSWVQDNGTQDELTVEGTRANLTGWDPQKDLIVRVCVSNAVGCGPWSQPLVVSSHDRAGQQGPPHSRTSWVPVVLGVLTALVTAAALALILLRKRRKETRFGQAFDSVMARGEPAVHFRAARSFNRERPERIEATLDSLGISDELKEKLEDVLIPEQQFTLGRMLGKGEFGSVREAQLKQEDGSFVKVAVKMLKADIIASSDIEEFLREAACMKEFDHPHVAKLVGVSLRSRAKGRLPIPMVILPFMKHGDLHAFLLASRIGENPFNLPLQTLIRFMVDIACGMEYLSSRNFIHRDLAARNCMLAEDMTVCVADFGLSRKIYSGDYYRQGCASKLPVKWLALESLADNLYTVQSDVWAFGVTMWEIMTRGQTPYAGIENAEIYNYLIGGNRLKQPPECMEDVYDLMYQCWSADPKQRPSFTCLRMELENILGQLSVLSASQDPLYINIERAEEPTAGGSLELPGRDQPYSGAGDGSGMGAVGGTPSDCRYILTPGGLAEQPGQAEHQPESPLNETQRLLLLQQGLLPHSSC
As to the kind of experiment: Binding affinity to wild-type human partial length TYRO3 (S497 to T814 residues) expressed in bacterial expression system assessed as fraction of unbound kinase to substrate at 0.1 uM after 1 hr by KinomeScan assay.

Assay [2] concerns the target Hepatocyte growth factor receptor (Homo sapiens) (UniProt P08581). As to the kind of experiment: Binding affinity to human MET (D1010 to S1367 residues) expressed in bacterial expression system assessed as fraction of unbound kinase to substrate at 10 uM after 1 hr by KinomeScan assay.
Assay [3] has as its target Epidermal growth factor receptor (Homo sapiens) (UniProt P00533). As to the kind of experiment: Binding affinity to partial length wild type human EGFR (R669 to V1011 residues) expressed in bacterial expression system assessed as fraction of unbound kinase to substrate at 0.1 uM after 1 hr by KinomeScan assay.
Assay [4] addresses T2, Aurora kinase A (Homo sapiens) (UniProt O14965).
T2 sequence (whole entry): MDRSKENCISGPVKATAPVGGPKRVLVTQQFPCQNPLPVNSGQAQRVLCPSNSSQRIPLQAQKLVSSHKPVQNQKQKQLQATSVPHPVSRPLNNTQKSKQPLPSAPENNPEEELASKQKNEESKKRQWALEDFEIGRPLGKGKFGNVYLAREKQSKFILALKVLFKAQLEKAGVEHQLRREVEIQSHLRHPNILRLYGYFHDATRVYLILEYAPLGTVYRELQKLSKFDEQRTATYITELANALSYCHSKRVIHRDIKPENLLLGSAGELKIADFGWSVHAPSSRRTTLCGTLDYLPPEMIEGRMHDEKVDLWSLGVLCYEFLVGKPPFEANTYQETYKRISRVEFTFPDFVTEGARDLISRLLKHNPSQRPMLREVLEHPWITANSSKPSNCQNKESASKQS
As to the kind of experiment: Binding affinity to wild-type human partial length AURKA (E122 to K401 residues) expressed in mammalian expression system assessed as fraction of unbound kinase to substrate at 0.1 uM after 1 hr by KinomeScan assay.

Assay [5] has as its target Epidermal growth factor receptor (Homo sapiens) (UniProt P00533). As to the kind of experiment: Binding affinity to partial length wild type human EGFR (R669 to V1011 residues) expressed in bacterial expression system assessed as fraction of unbound kinase to substrate at 1 uM after 1 hr by KinomeScan assay.
The target of assay [6] is Glycogen synthase kinase-3 beta (Homo sapiens) (UniProt P49841). As to the kind of experiment: Binding affinity to full length wild type human GSK3beta (M1 to T433 residues) expressed in mammalian expression system assessed as fraction of unbound kinase to substrate at 10 uM after 1 hr by KinomeScan assay.
Sequence of Glycogen synthase kinase-3 beta (Homo sapiens) (P49841 whole entry, looked up, the tested form may be a part): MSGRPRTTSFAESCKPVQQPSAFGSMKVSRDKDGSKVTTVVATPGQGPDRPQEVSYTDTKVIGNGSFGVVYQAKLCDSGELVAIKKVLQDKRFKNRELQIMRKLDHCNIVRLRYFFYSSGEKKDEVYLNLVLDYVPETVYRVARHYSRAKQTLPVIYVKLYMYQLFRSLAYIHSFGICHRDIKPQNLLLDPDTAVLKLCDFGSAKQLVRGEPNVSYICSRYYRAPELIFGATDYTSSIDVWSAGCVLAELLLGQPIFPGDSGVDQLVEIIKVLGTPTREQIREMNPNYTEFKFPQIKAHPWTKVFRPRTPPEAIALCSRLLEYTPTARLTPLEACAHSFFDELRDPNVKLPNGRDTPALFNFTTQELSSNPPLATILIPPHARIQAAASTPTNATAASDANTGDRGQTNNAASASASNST
Assay [7] has as its target Epidermal growth factor receptor (Homo sapiens) (UniProt P00533). As to the kind of experiment: Binding affinity to partial length wild type human EGFR (R669 to V1011 residues) expressed in bacterial expression system assessed as fraction of unbound kinase to substrate at 10 uM after 1 hr by KinomeScan assay.
The target of assay [8] is Serine/threonine-protein kinase B-raf (Homo sapiens) (UniProt P15056). As to the kind of experiment: Binding affinity to wild-type human partial length BRAF (S429 to E741 residues) expressed in mammalian expression system assessed as fraction of unbound kinase to substrate at 10 uM after 1 hr by KinomeScan assay.
Sequence of Serine/threonine-protein kinase B-raf (Homo sapiens) (P15056 whole entry, the tested form may be a part): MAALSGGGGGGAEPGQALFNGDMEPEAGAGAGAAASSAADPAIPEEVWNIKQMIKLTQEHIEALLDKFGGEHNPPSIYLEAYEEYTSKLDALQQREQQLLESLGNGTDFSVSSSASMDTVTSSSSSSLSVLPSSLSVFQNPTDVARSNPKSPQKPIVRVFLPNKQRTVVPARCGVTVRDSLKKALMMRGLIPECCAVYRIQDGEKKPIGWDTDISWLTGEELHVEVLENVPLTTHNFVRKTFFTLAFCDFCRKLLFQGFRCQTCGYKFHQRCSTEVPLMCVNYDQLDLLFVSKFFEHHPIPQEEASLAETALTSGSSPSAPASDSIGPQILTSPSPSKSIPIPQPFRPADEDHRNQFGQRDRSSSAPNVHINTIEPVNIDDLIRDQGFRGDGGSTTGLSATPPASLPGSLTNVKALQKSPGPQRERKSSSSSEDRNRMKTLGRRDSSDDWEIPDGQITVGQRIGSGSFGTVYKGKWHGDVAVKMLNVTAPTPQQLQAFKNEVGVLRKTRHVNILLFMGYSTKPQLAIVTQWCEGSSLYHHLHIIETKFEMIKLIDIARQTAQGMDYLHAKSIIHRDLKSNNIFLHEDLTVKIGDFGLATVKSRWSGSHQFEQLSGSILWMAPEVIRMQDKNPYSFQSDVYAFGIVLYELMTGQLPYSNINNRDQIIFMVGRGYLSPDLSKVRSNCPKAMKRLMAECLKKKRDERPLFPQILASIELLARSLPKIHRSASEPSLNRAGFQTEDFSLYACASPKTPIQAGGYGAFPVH
Assay [9] concerns the target Tyrosine-protein kinase receptor UFO (Homo sapiens) (UniProt P30530). As to the kind of experiment: Binding affinity to human AXL (R497 to Y821 residues) expressed in bacterial expression system assessed as fraction of unbound kinase to substrate at 1 uM after 1 hr by KinomeScan assay.
Assay [10] deals with Cyclin-dependent kinase 2 (Homo sapiens) (UniProt P24941). As to the kind of experiment: Binding affinity to wild-type human full length CDK2 (M1 to L298 residues) expressed in bacterial expression system assessed as fraction of unbound kinase to substrate at 10 uM after 1 hr by KinomeScan assay.
Assay [11] concerns the target T1, Tyrosine-protein kinase receptor TYRO3 (Homo sapiens). As to the kind of experiment: Binding affinity to wild-type human partial length TYRO3 (S497 to T814 residues) expressed in bacterial expression system assessed as fraction of unbound kinase to substrate at 10 uM after 1 hr by KinomeScan assay.
In assay [12] the target is Tyrosine-protein kinase ABL1 (Homo sapiens) (UniProt P00519). As to the kind of experiment: Binding affinity to human wild type ABL1 (229 to 512 residues) expressed in mammalian expression system assessed as fraction of unbound kinase to substrate at 10 uM after 1 hr by KinomeScan assay.
Sequence of Tyrosine-protein kinase ABL1 (Homo sapiens) (P00519 whole entry, the tested form may be a part): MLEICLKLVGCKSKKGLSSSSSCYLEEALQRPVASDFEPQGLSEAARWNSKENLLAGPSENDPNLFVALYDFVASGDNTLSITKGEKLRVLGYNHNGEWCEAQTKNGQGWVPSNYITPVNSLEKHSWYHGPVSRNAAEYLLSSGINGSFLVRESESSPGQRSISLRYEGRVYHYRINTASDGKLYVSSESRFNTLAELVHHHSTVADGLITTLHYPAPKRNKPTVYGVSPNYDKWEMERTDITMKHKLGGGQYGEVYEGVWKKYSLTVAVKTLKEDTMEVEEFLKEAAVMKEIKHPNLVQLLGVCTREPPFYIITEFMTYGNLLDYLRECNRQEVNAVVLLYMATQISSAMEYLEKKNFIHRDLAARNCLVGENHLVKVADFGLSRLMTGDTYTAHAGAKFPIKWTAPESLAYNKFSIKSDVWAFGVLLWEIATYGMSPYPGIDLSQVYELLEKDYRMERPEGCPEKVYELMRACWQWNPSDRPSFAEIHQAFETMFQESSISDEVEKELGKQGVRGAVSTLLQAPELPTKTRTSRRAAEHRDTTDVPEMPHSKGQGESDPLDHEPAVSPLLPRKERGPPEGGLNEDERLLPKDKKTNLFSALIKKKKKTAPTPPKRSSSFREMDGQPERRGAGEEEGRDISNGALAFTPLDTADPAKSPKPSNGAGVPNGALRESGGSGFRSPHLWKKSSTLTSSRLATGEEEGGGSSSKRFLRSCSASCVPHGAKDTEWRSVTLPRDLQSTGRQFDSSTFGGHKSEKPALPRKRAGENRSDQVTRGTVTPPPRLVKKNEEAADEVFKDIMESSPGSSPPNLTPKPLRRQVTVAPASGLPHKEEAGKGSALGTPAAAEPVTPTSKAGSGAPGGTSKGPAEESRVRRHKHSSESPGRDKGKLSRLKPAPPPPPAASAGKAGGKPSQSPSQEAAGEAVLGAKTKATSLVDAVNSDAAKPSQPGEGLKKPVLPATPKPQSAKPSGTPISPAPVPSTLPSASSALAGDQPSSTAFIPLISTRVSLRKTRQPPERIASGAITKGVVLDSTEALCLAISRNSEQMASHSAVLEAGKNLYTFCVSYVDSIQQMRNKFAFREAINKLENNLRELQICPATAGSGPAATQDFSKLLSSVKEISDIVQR

Sequence of Tyrosine-protein kinase receptor UFO (Homo sapiens) (P30530 whole entry, the tested form may be a part): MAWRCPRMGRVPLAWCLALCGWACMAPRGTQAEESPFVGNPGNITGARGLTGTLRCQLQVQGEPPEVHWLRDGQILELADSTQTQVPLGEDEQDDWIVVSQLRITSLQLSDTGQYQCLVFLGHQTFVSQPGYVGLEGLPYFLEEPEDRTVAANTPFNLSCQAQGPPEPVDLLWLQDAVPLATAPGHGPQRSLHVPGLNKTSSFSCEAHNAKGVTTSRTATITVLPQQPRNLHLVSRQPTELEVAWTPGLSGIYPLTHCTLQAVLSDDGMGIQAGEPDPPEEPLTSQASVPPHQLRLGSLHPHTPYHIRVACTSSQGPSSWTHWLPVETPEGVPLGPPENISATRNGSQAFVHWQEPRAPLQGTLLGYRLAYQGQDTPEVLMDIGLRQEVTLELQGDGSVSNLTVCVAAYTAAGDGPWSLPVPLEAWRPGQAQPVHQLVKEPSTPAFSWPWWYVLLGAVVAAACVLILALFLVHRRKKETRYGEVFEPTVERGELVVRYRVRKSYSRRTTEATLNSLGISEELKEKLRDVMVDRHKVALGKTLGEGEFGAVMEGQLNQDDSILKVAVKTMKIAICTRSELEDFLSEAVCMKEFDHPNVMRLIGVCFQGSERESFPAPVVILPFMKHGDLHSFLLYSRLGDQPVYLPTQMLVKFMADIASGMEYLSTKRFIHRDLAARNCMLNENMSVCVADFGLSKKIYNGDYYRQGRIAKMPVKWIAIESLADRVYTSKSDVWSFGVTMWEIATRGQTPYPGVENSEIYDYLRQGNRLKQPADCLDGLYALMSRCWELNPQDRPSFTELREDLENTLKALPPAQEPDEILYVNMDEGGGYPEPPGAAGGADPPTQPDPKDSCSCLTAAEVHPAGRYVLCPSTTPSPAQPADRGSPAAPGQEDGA
Sequence of Hepatocyte growth factor receptor (Homo sapiens) (P08581 whole entry, the tested form may be a part): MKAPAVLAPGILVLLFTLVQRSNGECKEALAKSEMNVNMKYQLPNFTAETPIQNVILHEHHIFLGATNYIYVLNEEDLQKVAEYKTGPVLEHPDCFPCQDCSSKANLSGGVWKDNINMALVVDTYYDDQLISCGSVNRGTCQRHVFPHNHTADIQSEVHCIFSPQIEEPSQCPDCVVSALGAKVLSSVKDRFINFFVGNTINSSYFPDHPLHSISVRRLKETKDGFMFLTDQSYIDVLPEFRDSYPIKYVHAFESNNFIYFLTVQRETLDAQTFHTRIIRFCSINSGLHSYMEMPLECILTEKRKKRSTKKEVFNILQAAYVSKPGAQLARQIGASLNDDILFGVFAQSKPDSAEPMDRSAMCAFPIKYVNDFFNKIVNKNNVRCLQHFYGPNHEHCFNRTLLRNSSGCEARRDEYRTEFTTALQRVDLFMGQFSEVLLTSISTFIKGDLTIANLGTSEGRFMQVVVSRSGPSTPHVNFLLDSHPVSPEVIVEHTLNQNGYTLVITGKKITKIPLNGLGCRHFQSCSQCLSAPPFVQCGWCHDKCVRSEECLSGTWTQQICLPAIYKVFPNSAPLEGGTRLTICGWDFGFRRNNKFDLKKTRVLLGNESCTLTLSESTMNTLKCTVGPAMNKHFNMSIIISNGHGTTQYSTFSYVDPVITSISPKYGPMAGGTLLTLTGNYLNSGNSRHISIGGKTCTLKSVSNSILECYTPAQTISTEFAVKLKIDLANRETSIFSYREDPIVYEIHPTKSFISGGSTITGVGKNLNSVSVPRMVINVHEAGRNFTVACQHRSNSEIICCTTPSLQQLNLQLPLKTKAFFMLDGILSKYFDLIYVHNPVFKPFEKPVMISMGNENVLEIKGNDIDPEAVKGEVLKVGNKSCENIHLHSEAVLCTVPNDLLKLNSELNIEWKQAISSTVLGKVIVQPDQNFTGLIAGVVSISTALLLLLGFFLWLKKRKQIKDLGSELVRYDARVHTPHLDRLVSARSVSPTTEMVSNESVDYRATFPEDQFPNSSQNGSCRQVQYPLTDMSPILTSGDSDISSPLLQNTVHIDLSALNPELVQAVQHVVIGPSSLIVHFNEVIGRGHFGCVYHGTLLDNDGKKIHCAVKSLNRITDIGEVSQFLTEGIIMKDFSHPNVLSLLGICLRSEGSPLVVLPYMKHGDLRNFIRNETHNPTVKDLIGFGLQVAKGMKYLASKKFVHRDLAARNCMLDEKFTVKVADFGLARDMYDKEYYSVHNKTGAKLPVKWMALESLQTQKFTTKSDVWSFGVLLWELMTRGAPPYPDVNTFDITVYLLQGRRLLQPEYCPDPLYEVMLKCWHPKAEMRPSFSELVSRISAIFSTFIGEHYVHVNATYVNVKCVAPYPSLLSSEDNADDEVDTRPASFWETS

With `Cc1cnc2[nH]cnc2c1Oc1ccc(NC(=O)c2cccn(-c3ccc(F)cc3)c2=O)cc1F`, the Activity in assay [1] amounted to 0%; in assay [2] it was 96.2%; in assay [3], 1%; in [4], 1%; in assay [5] it was 0%; in assay [6] it was 0%. The Activity in assay [7] is 0%; in assay [8], 18%; in [9], 67%; in assay [10] it was 3%; in [11], 5%; in assay [12], 3%.
Take `O=C(Nc1ccc(Oc2ccnc3[nH]cnc23)c(F)c1)c1cccn(-c2ccc(F)cc2)c1=O`: the Activity in assay [1] was found to be 17%; in assay [2] it was 97%; in assay [3], 0%; in [4], 5%; in assay [5], 0%; in assay [6], 6%. In addition, the Activity in [7] was found to be 0%; in assay [8], 58%; in [9], 90.7%; in [10], 48%; in [11] it was 99.8%; in assay [12], 34%.
As for `CC(C)c1nc2c(Oc3ccc(NC(=O)c4cccn(-c5ccc(F)cc5)c4=O)cc3F)ccnc2[nH]1`, the Activity in [1] came to 1%; in assay [2] it was 96.6%; in assay [3], 2%; in [4], 1%; in [5] it was 0%; in [6], 0%. Besides, the Activity in [7] worked out at 8%; in [8], 43%; in [9], 90%; in assay [10] it was 99.7%; in assay [11], 92.4%; in assay [12] it was 17%.
As to `O=C(Nc1ccc(Oc2c(Br)cnc3[nH]cnc23)c(F)c1)c1cccn(-c2ccc(F)cc2)c1=O`, the Activity in assay [1] was 15%; in [2] it was 96.4%; in assay [3], 0%; in [4] it was 7%; in assay [5] it was 0%; in assay [6], 0%. Also, the Activity in assay [7] is 1%; in [8], 10%; in [9] it was 52%; in [10], 32%; in assay [11], 10%; in assay [12], 0%.
